Data on 27 compounds can be found in patent US20070232527A1, “Medicaments and methods combining a HCV protease inhibitor and an AKR competitor” (priority 2005, published 2007).

One series concerns the target T1, AKR1C2 (Homo sapiens, UniProt P52895).
T1 sequence (P52895 1-323): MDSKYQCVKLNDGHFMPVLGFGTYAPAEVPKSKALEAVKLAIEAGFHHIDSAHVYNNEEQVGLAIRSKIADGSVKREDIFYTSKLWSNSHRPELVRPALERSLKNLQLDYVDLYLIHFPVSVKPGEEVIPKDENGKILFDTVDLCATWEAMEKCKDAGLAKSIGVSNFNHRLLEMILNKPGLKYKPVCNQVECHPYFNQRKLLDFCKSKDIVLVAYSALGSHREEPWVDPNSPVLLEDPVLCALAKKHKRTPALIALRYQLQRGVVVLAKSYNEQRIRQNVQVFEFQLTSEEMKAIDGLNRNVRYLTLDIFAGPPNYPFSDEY
Nature of the series: Incubation with S9 fraction of recombinant human AKR1C2. Format: in vitro ADME. Also noted: made in house. Conditions: 20 μM 14C-radiolabeled compound; S9 2.5 mg protein/mL; NADPH. Here is the method:
(§1) Recombinant human AKRs (AKR1C2, AKR1C3 and AKR1C4) were grown, sonicated and centrifuged at ˜10,000 g to obtain S9 fractions. Incubations of ^14C-radiolabeled compound of Formula Ia, ^14C-radiolabeled compound of Formula Ib and ^14C-radiolabeled compound of Formula Ic (all at 20 μM) with S9-fractions from three recombinant human AKRs (2.5 mg protein/mL) were conducted as described above. [drawing 161]
(§2) The samples were analyzed by HPLC-coupled with radiometric detector and confirmed by LC-MS.

A short description of series [1]: In vivo inhibition study of Formula Ia with AKR competitor diflunisal, plasma PK. Conditions: cynomolgus monkeys plasma; as a function of diflunisal dose 0, 62.5, 125, 250 mg. The procedure: An in vivo study was conducted in cynomolgus monkeys where 200 mg Formula Ia and 0 (control), 62.5, 125, or 250 mg diflunisal (Dolobid) was administered as illustrated below. All six monkeys were first dosed with Formula Ia with blood samples collected over a 12 hr period for plasma pharmacokinetics (PK) of Formula Ia prior to administration of diflunisal (dose-escalation). Four doses of diflunisal were subsequently administered every 12 hr with Formula Ia administered at each 4th diflunisal dose after which blood samples were collected for PK assessment of Formula Ia. The following chart summarizes the timing of Formula Ia and diflunisal administration.

The subject of series [2] is cytosolic enzymes that convert Formula Ia to Formula Ia′. Nature of the series: in vitro. The conditions noted are these: human.
Experimental: All incubations contained 3 mM magnesium chloride and NADPH-generating system in 0.5 mL of 50 mM potassium phosphate buffer, pH 7.4. Prior to the addition of drug, incubation mixtures were preincubated for 2 min at 37° C. […] The incubation mixtures were vortexed and centrifuged (˜10,000 g) at 4° C. for 10 min; supernatants were analyzed by HPLC coupled with radiometric detector. Heat activated S9 cofactor or mitochondria were used as control. For LC-MS analysis, supernatants were concentrated in SpeedVac for 3 hrs. Incubation volumes were 0.5 mL and the final concentration of the organic solvents in the incubation system was less than 1% (v/v).
The mobile phase consisted of 10 mM ammonium acetate adjusted to pH 7.0 with 1% ammonium hydroxide (A) and 100% methanol (B).
A further series deals with T2, AKR1C3 (Homo sapiens, UniProt P42330).
T2 sequence (P42330 1-323): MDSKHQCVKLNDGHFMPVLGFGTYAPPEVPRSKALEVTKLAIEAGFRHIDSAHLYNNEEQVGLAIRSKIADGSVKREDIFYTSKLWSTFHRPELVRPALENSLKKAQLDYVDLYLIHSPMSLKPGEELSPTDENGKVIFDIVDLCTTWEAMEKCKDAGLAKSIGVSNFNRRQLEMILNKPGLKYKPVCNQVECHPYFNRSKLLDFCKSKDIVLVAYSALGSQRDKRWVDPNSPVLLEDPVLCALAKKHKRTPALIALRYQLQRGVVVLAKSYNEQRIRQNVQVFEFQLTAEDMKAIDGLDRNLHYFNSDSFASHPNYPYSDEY
Nature of the series: Incubation with S9 fraction of recombinant human AKR1C3. It counts as in vitro ADME. Also on record: made in house. Conditions: 20 μM 14C-radiolabeled compound; S9 2.5 mg protein/mL; NADPH. Here is the method:
as §1, §2

Series [3] concerns cytosolic enzymes that convert Formula Ia to Formula Ia′. Nature of the series: Inhibition of metabolism of 14C-Formula Ia to Formula Ia′ in human liver cytosol. Conditions: human; for inhibition at 120 min: pH 7.4.
Series [4] has the same test system. Nature of the series: Inhibition of metabolism of 14C-Formula Ia to Formula Ia′ in human liver S9. Format: in vitro ADME. The conditions noted are these: human, pH 7.4.
Setting [5] is: pH 7.4, % of Inhibition on Metabolite Formation of Compound Formula Ia.
Where [6] appears, read: pH 7.4, % Inhibition on Metabolite Formation of Compound Formula Ia.
[7] abbreviates: pH 7.4, inhibited formation of the compound of Formula Ia′.

With `CC(C)(C)NC(=O)N[C@H](C(=O)N1C[C@H]2[C@@H]([C@H]1C(=O)N[C@@H](CC1CCC1)C(=O)C(N)=O)C2(C)C)C(C)(C)C` [Formula Ic, (1R,2S,5S)—N-[(1S)-3-amino-1-(cyclobutylmethyl)-2,3-dioxopropyl]-3-[(2S)-2-[[[(1,1-dimethylethyl)amino]carbonyl]amino]-3,3-dimethyl-1-oxobutyl]-6,6-dimethyl-3-azabicyclo[3.1.0]hexane-2-carboxamide], at AKR1C2, the “metabolism by recombinant AKR1C2” value was “preferentially metabolized”. In addition, the “AUC ratio (Formula Ia′ to AUC for the compound)” value in series [1] is given as “decline”.

Broadly, the inhibition is the percentage by which the read-out fell short of the control. For the compound `O=C(c1ccccc1)c1ccc2n1CCC2C(=O)O` (stereo not shown) [Ketorolac], in series [2] (setting [5]), the inhibition at 2 h, 4 µM is 0%.

Take `O=C(O)Cc1ccccc1Nc1c(Cl)cccc1Cl` [Diclofenac]: the inhibition at 2 h, 7 µM in series [2] (setting [5]) was determined as 57.3%.

With `O=C(O)CCc1nc(-c2ccccc2)c(-c2ccccc2)o1` [Oxaprozin], the inhibition at 2 h, 500 µM in series [2] (setting [5]) was 76.1%.

As for `CC(C)(C)NC(=O)N[C@H](C(=O)N1C[C@H]2[C@@H]([C@H]1C(=O)N[C@H](CC1CCC1)C(=O)C(N)=O)C2(C)C)C(C)(C)C` [Formula Ib], the “metabolism by recombinant AKR1C3” value on AKR1C3 is “preferentially metabolized”. Further, the “AUC ratio (Formula Ia′ to AUC for the compound)” value in series [1] is “decline”.

Take `CCc1cccc2c3c([nH]c12)C(CC)(CC(=O)O)OCC3` (stereo not shown) [Etodolac]: in series [2] (setting [5]), the inhibition at 2 h, 100 µM was 3.74%.

Take `Cc1ccc(C)c(OCCCC(C)(C)C(=O)O)c1` [Gemfibrozil, 5-(2,5-dimethylphenoxy)-2,2-dimethylpentanoic acid]: in series [2] (setting [6]), the inhibition at 120 min, 100 µM worked out at 27.4% and the inhibition at 120 min, 100 μM was 27.4%.

Regarding `CC(C(=O)O)c1ccc(-c2ccccc2)c(F)c1` (stereo not shown) [Flurbirofen], the inhibition at 2 h, 50 µM in series [2] (setting [5]) turned out to be 31.6%.

For `NC(=O)c1ncn([C@@H]2O[C@H](CO)[C@@H](O)[C@H]2O)n1` [Ribavirin], in series [2] (setting [6]), the inhibition at 120 min, 10 μM is 1.76% and the inhibition at 120 min, 30 μM turned out to be 0%.

As for `Oc1ncnc2[nH]ncc12` [Allopurinol], the “inhibited formation of the compound of Formula Ia′” value with human liver cytosol was “no inhibition”. In series [2] (setting [6]), the inhibition at 2 h, 100 µM was 2%.

For `COc1ccc2cc(CCC(C)=O)ccc2c1` [Nabumetone], the inhibition at 2 h, 200 µM in series [2] (setting [5]) was 42.4%.

For `CC(C)=CCC/C(C)=C/COc1c2ccoc2cc2oc(=O)ccc12` [Bergamottin], in series [2] (setting [5]), the inhibition at 2 h, 10 µM worked out at 10%.

As for `CC1=C(CC(=O)O)c2cc(F)ccc2/C1=C\c1ccc([S+](C)[O-])cc1` (stereo not shown) [Sulindac], the inhibition at 2 h, 30 µM in series [3] (pooled human liver cytosol, pH 7.4, probe 14C-radiolabeled compound of Formula Ia (20 μM), % of Inhibition on Metabolite Formation of Compound Formula Ia, Table 5, human liver cytosol, 2 hr incubation, 30 μM) came out at 19%.

In the case of `O=C1C[C@@H](c2ccc(O)cc2)Oc2cc(O)cc(O)c21` [Naringenin], the inhibition at 2 h, 500 µM in series [3] (pooled human liver cytosol, pH 7.4, probe 14C-radiolabeled compound of Formula Ia (20 μM), % of Inhibition on Metabolite Formation of Compound Formula Ia, Table 5, human liver cytosol, 2 hr incubation, 500 μM) amounted to 86.7%.

With `O=C(O)c1ccccc1Nc1cccc(C(F)(F)F)c1` [Flufenamic acid, N-(3-trifluoromethylphenyl)anthranilic acid], the inhibition at 2 h, 100 µM in series [2] (setting [6]) was found to be 80.3%. Further, the inhibition at 120 min in series [2] (setting [7]) was found to be 80.3%.

Take `CC(C(=O)O)c1cccc(Oc2ccccc2)c1` (stereo not shown) [Fenoprofen]: the inhibition at 2 h, 80 µM in series [2] (setting [5]) stood at 14.2%.

`CC(C)Cc1ccc(C(C)C(=O)O)cc1` (stereo not shown) [Ibuprofen]: in series [2] (setting [6]), the inhibition at 120 min, 50 µM was found to be 21.9%; the inhibition at 120 min, 50 μM turned out to be 31.3%; the inhibition at 120 min, 100 µM is 31.4%; the inhibition at 120 min, 100 μM turned out to be 33.4%. Further, in series [2] (setting [6]), the inhibition at 120 min, 200 µM worked out at 40.7%; the inhibition at 120 min, 200 μM is 43.3%; the inhibition at 120 min, 500 µM was 56.6%; the inhibition at 120 min, 1000 µM came to 70%. The inhibition at 120 min, 1000 μM in series [2] (setting [6]) stood at 70%. Besides, the inhibition at 2 h, 200 µM in series [2] (setting [5]) amounted to 43.3%. In series [2] (pH 7.4, inhibited metabolism of 14C-radiolabeled compound of Formula Ia), this compound had an inhibition at 120 min of 70%.

As to `COc1ccc2c(c1)c(CC(=O)O)c(C)n2C(=O)c1ccc(Cl)cc1` [Indomethacin], in series [2] (setting [6]), the inhibition at 120 min, 100 µM stood at 19% and the inhibition at 120 min, 100 μM was 19%. In series [2] (setting [5]), the inhibition at 2 h, 100 µM stood at 19%.

For `O=c1c(O)c(-c2ccc(O)c(O)c2)oc2cc(O)cc(O)c12` [Quercetin], the inhibition at 120 min, 100 µM in series [4] turned out to be 9.3%; in series [2] (setting [7]) it was 33.4%. For the same compound, the inhibition at 2 h, 100 µM in series [2] (setting [6]) is 33.4%.

In turn, `CN1C(=O)CN=C(c2ccccc2F)c2cc([N+](=O)[O-])ccc21` [Flunitrazepam] registered an inhibition at 120 min in series [3] of 51%.

Compound `Cc1ncc2n1-c1ccc(Cl)cc1C(c1ccccc1F)=NC2` [Midazolam] yielded an inhibition at 120 min in series [3] of 37%.

For the compound `CC1=CC(=O)c2ccccc2C1=O` [Menadione], the inhibition at 120 min, 100 µM in series [4] turned out to be 18%; in series [2] (setting [7]) it was 30%. Also, the inhibition at 2 h, 100 µM in series [2] (setting [6]) is 29.7%.

As for `O=C1OC(c2ccc(O)cc2)(c2ccc(O)cc2)c2ccccc21` [Phenolphthalein], the inhibition at 120 min, 100 μM in series [2] (setting [6]) turned out to be 86.1%. For the same compound, in series [2] (setting [7]), the inhibition at 120 min was 86.1%.

As for `Cc1ccc(C(=O)c2ccc(CC(=O)O)n2C)cc1` [Tolmetin], the inhibition at 2 h, 125 µM in series [2] (setting [5]) worked out at 2.14%.

For the compound `Cc1cccc(Nc2ccccc2C(=O)O)c1C` [Mefenamic acid], in series [2] (setting [5]), the inhibition at 2 h, 1 µM was found to be 14.6% and the inhibition at 2 h, 10 µM is 51.1%.

As for `Cc1ccc(-c2cc(C(F)(F)F)nn2-c2ccc(S(N)(=O)=O)cc2)cc1` [Celecoxib], in series [2] (setting [6]), the inhibition at 120 min, 2 μM came to 8.42%; the inhibition at 120 min, 10 μM came to 9.18%; the inhibition at 120 min, 50 μM was found to be 20.5%. The inhibition at 2 h, 50 µM in series [2] (setting [5]) came to 20.5%.

In the case of `C#CCN(C)Cc1ccccc1` [Pargyline], in the series with human liver cytosol, the “inhibited formation of the compound of Formula Ia′” value is listed as “no inhibition”. For the same compound, the inhibition at 2 h, 1 µM in series [2] (setting [6]) is 0%.
